From ChEMBL document CHEMBL4052691, “Discovery of BMS-961955, an allosteric inhibitor of the hepatitis C virus NS5B polymerase” (Bioorg Med Chem Lett, 2017)

Tests used:
[1] = Apparent permeability of the compound at pH 5.5 by PAMPA; format: physicochemical
[2] = Apparent permeability of the compound at pH 7.4 by PAMPA; format: physicochemical
[3] = AUC (0 to 24 hrs) in rat at 5 mg/kg, iv; format: ADME, organism-based; design: time < 24 hr, dose 5 mg/kg, route intravenous; settings: in vivo
[4] = Oral bioavailability rat at 10 mg/kg; format: ADME, organism-based; settings: in vivo
[5] = Volume of distribution at steady state in rat at 5 mg/kg, iv; format: ADME, organism-based; settings: in vivo, read-out: Vdss
[6] = AUC (0 to 24 hrs) in rat at 10 mg/kg, iv; format: ADME, organism-based; design: dose 10 mg/kg, time < 24 hr, route intravenous; settings: in vivo
[7] = AUC (0 to 24 hrs) in dog at 1 mg/kg, iv; format: ADME, organism-based, Canis lupus familiaris; design: time < 24 hr, dose 1 mg/kg, route intravenous; settings: in vivo
[8] = AUC (0 to 24 hrs) in dog at 3 mg/kg, po; format: ADME, organism-based, Canis lupus familiaris; design: time < 24 hr, dose 3 mg/kg, route oral; settings: in vivo
[9] = Volume of distribution at steady state in dog at 1 mg/kg, iv; format: ADME, organism-based, Canis lupus familiaris; settings: in vivo, read-out: Vdss
[10] = Oral bioavailability in dog at 3 mg/kg; format: ADME, organism-based, Canis lupus familiaris; settings: in vivo
[11] = AUC (0 to 24 hrs) in cynomolgus monkey at 1 mg/kg, iv; format: ADME, organism-based, Macaca fascicularis; design: dose 1 mg/kg, time < 24 hr, route intravenous; settings: in vivo
[12] = AUC (0 to 24 hrs) in cynomolgus monkey at 3 mg/kg, […]; format: ADME, organism-based, Macaca fascicularis; design: dose 3 mg/kg, time < 24 hr; settings: in vivo
[13] = Volume of distribution at steady state in cynomolgus monkey at 1 mg/kg, iv; format: ADME, organism-based, Macaca fascicularis; settings: in vivo, read-out: Vdss
[14] = Oral bioavailability in cynomolgus monkey at 3 mg/kg; format: ADME, organism-based, Macaca fascicularis; settings: in vivo
[15] = system: Rattus norvegicus; assay: (§1) AUC (0 to 6 hrs) in rat at 5 mg/kg, iv; format: ADME, organism-based; design: dose 5 mg/kg, time < 6 hr, route intravenous; settings: in vivo, 6 h
[16] = as §1; format: ADME, organism-based; design: dose 5 mg/kg, time < 6 hr, route intravenous; settings: in vivo

Compound	AUC(0-t) at 24 h [3]	bioavailability [4]	Papp [1]	Papp [2]	further results
CN1CC2CCC(C1)N2C(=O)[C@]12C[C@H]1c1cc(F)ccc1-c1c(C3CCCCC3)c3ccc(C(=O)NS(=O)(=O)C4(C)CC4)cc3n1C2	12.3 to 12.4 µM·h	52%	52.3 ×10⁻⁶ cm/s	59 ×10⁻⁶ cm/s	Vd [5]: 3.9 L/kg; AUC(0-t) at 24 h [6]: 12.4 µM·h; AUC(0-t) at 24 h [7]: 25.7 µM·h; AUC(0-t) at 24 h [8]: 62.1 µM·h; Vd [9]: 0.6 L/kg; bioavailability [10]: 84%; AUC(0-t) at 24 h [11]: 2.3 µM·h; AUC(0-t) at 24 h [12]: 3.1 µM·h; Vd [13]: 3.1 L/kg; bioavailability [14]: 48%
CCS(=O)(=O)NC(=O)c1ccc2c(C3CCCCC3)c3n(c2c1)C[C@@]1(C(=O)N2C4CCC2CN(C)C4)C[C@H]1c1cc(F)ccc1-3	0.857 µM·h	13.6%			
CN1CC2CCC(C1)N2C(=O)[C@]12C[C@H]1c1cc(F)ccc1-c1c(C3CCCCC3)c3ccc(C(=O)NS(=O)(=O)C4CC4)cc3n1C2	1.51 µM·h	23%			

Further lines, with some results ahead:

AUC(0-t) at 24 h [3]	bioavailability [4]	Compound	Papp [1]	Papp [2]	further results
	19%	CN1CC2CCC(C1)N2C(=O)[C@]12C[C@H]1c1cc(F)ccc1-c1c(C3CCCCC3)c3ccc(C(=O)NS(=O)(=O)N4CCC4)cc3n1C2			AUC [15]: 0.5 µM·h
	8%	CN1CC2CCC(C1)N2C(=O)[C@]12C[C@H]1c1cc(F)ccc1-c1c(C3CCCCC3)c3ccc(C(=O)NS(=O)(=O)C(C)(C)C)cc3n1C2	13.5 ×10⁻⁶ cm/s	23.8 ×10⁻⁶ cm/s	AUC(0-t) at 6 h [16]: 1.3 µM·h
